Measurements taken from ChEMBL document CHEMBL1201862, “PubChem BioAssay data set” (2004).
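Dose response: 5 concentrations. Exposure: 48 h. Format: 96-well plates. Endpoint: linear interpolation; highest concentration if not reached. The concentration for 50% growth inhibition is given as GI50.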 Activity calls are given as the source filed them. No stated cut-off is given here; in the data, active = GI50 up to about 1.1 µM and inactive = higher.

How the values were obtained:
Assay in all cases: DTP human tumour cell line panel, 48 h
A498 = test system: A498
HCC 2998 = test system: HCC 2998
HCT-15 = test system: HCT-15
M14 = test system: M14
MOLT-4 = test system: MOLT-4
NCI-H460 = test system: NCI-H460
NCI-H522 = test system: NCI-H522
SK-MEL-28 = test system: SK-MEL-28
SK-OV-3 = test system: SK-OV-3
SNB-19 = test system: SNB-19
SNB-75 = test system: SNB-75
HOP-92 = test system: HOP-92
LOX IMVI = test system: LOX IMVI
NCI-H226 = test system: NCI-H226
HL-60 = test system: HL-60
SR = test system: SR

Compound	GI50 (A498)	GI50 (HCC 2998)	GI50 (HCT-15) [µM]	GI50 (M14)	GI50 (MOLT-4)	GI50 (NCI-H460)	GI50 (NCI-H522)	GI50 (SK-MEL-28)	GI50 (SK-OV-3)	GI50 (SNB-19)	GI50 (SNB-75)	GI50 (HOP-92)	GI50 (LOX IMVI)	GI50 (NCI-H226)	GI50 (HL-60)	GI50 (SR)
COc1ccc(C=C2C(=O)OC(C)(C)OC2=O)cc1OC	> 100 µM (inactive)	> 100 µM (inactive)	> 100	> 100 µM (inactive)	> 100 µM (inactive)	> 100 µM (inactive)	> 100 µM (inactive)	> 100 µM (inactive)	> 100 µM (inactive)	> 100 µM (inactive)	80.7 µM (inactive)	–	–	–	–	–
Cc1ccc(NC(=O)C(=O)Cc2nc3ccccc3o2)c(C)c1	–	> 100 µM (inactive)	> 100	> 100 µM (inactive)	–	> 100 µM (inactive)	–	> 100 µM (inactive)	> 100 µM (inactive)	> 100 µM (inactive)	> 100 µM (inactive)	> 100 µM (inactive)	> 100 µM (inactive)	> 100 µM (inactive)	–	–
O=[PH](O)c1ccsc1	> 100 µM (inactive)	–	> 100	> 100 µM (inactive)	> 100 µM (inactive)	> 100 µM (inactive)	> 100 µM (inactive)	> 100 µM (inactive)	> 100 µM (inactive)	–	–	86.5 µM (inactive)	> 100 µM (inactive)	–	> 100 µM (inactive)	–
COc1ccc(/C=C/CN(C)CCc2ccccc2)cc1OC	–	32.1 µM (inactive)	> 100	–	40.6 µM (inactive)	–	–	> 100 µM (inactive)	–	> 100 µM (inactive)	25.9 µM (inactive)	4.89 µM (inactive)	–	> 100 µM (inactive)	–	–
CNC(=O)CN(CC(N)=O)C(=O)NC	> 100 µM (inactive)	> 100 µM (inactive)	> 100	> 100 µM (inactive)	> 100 µM (inactive)	> 100 µM (inactive)	> 100 µM (inactive)	> 100 µM (inactive)	> 100 µM (inactive)	> 100 µM (inactive)	> 100 µM (inactive)	> 100 µM (inactive)	> 100 µM (inactive)	> 100 µM (inactive)	> 100 µM (inactive)	> 100 µM (inactive)
O=C(CCc1n[nH]c(=S)o1)Nc1cc(Cl)c(Cl)cc1Cl	36.9 µM (inactive)	> 100 µM (inactive)	22.2	83.6 µM (inactive)	45 µM (inactive)	46.6 µM (inactive)	71.9 µM (inactive)	60.1 µM (inactive)	> 100 µM (inactive)	> 100 µM (inactive)	89.1 µM (inactive)	48.8 µM (inactive)	–	66.4 µM (inactive)	33.3 µM (inactive)	–
O=C1CCC2CCc3cccc4oc1c2c34 (stereo not drawn)	> 100 µM (inactive)	> 100 µM (inactive)	> 100	> 100 µM (inactive)	96.2 µM (inactive)	> 100 µM (inactive)	–	> 100 µM (inactive)	> 100 µM (inactive)	> 100 µM (inactive)	> 100 µM (inactive)	75.5 µM (inactive)	> 100 µM (inactive)	–	> 100 µM (inactive)	–
CCOc1cc(/C=C/C=C/C=C/c2ccc(N(C)C)cc2)[s+]c2ccccc12	> 100 µM (inactive)	48.2 µM (inactive)	26.4	19.7 µM (inactive)	5.5 µM (inactive)	46.9 µM (inactive)	4.56 µM (inactive)	19.1 µM (inactive)	> 100 µM (inactive)	24.1 µM (inactive)	32 µM (inactive)	25.1 µM (inactive)	–	11.1 µM (inactive)	1.72 µM (inactive)	–
O=C(CN(c1ccccc1)c1ccccc1)n1nnc2ccccc21	–	49.8 µM (inactive)	39.7	52.8 µM (inactive)	28.2 µM (inactive)	70.8 µM (inactive)	21.4 µM (inactive)	37.2 µM (inactive)	> 100 µM (inactive)	24.5 µM (inactive)	27 µM (inactive)	–	24.2 µM (inactive)	27.5 µM (inactive)	29.5 µM (inactive)	24.8 µM (inactive)
COCCNC(=O)C1C(=O)C(=O)N(CCOC)C1=O (stereo not drawn)	> 100 µM (inactive)	> 100 µM (inactive)	> 100	> 100 µM (inactive)	–	–	> 100 µM (inactive)	> 100 µM (inactive)	> 100 µM (inactive)	> 100 µM (inactive)	> 100 µM (inactive)	> 100 µM (inactive)	> 100 µM (inactive)	> 100 µM (inactive)	–	> 100 µM (inactive)
CC(C)CC(NC(=O)OC(C)(C)C)C(=O)Nc1ccc(Nc2nc(F)nc(-c3c4ccccc4c4n3CCS4)n2)cc1 (stereo not drawn)	26.2 µM (inactive)	18 µM (inactive)	16.3	20.2 µM (inactive)	16 µM (inactive)	14.8 µM (inactive)	15.3 µM (inactive)	23.5 µM (inactive)	18.8 µM (inactive)	18.2 µM (inactive)	22.2 µM (inactive)	18.8 µM (inactive)	–	–	21.9 µM (inactive)	14.1 µM (inactive)
O=C(O)CCSC(=O)Nc1cccc([N+](=O)[O-])c1	> 100 µM (inactive)	> 100 µM (inactive)	44.2	> 100 µM (inactive)	43.7 µM (inactive)	> 100 µM (inactive)	–	> 100 µM (inactive)	–	> 100 µM (inactive)	> 100 µM (inactive)	–	66.7 µM (inactive)	–	> 100 µM (inactive)	> 100 µM (inactive)
CCOc1ccc([Se][Se]c2ccc(OCC)cc2)cc1	–	> 100 µM (inactive)	82.4	> 100 µM (inactive)	–	> 100 µM (inactive)	46 µM (inactive)	> 100 µM (inactive)	–	> 100 µM (inactive)	96.4 µM (inactive)	–	–	44.2 µM (inactive)	–	> 100 µM (inactive)
COC(=O)C(CCCCCCCC(C(=O)OC)C1=Nc2nnc(N)n2C1=O)C1=Nc2nnc(N)n2C1=O (stereo not drawn)	> 100 µM (inactive)	> 100 µM (inactive)	> 100	> 100 µM (inactive)	> 100 µM (inactive)	> 100 µM (inactive)	> 100 µM (inactive)	> 100 µM (inactive)	> 100 µM (inactive)	> 100 µM (inactive)	48.3 µM (inactive)	65.8 µM (inactive)	> 100 µM (inactive)	> 100 µM (inactive)	> 100 µM (inactive)	> 100 µM (inactive)
COC(=O)C(=O)C(C(=O)OC)C(=O)C(=O)Nc1cc(Cl)c(C)cc1S(=O)(=O)O (stereo not drawn)	> 100 µM (inactive)	> 100 µM (inactive)	> 100	> 100 µM (inactive)	> 100 µM (inactive)	> 100 µM (inactive)	> 100 µM (inactive)	> 100 µM (inactive)	> 100 µM (inactive)	> 100 µM (inactive)	74.3 µM (inactive)	–	> 100 µM (inactive)	> 100 µM (inactive)	> 100 µM (inactive)	> 100 µM (inactive)
O=C(Nc1ccc(Cl)cc1)c1cccc([N+](=O)[O-])c1O	1.95 µM (inactive)	1.99 µM (inactive)	4.84	3.63 µM (inactive)	2.5 µM (inactive)	2.1 µM (inactive)	1.98 µM (inactive)	4.99 µM (inactive)	2.96 µM (inactive)	2.92 µM (inactive)	3.52 µM (inactive)	1.61 µM (inactive)	3.74 µM (inactive)	2.33 µM (inactive)	2.07 µM (inactive)	4.76 µM (inactive)
O=C(COc1ccccc1Cl)N1N=C(c2ccc(Cl)cc2)CC1(O)c1ccccc1 (stereo not drawn)	–	> 100 µM (inactive)	> 100	> 100 µM (inactive)	> 100 µM (inactive)	> 100 µM (inactive)	> 100 µM (inactive)	> 100 µM (inactive)	> 100 µM (inactive)	> 100 µM (inactive)	> 100 µM (inactive)	> 100 µM (inactive)	> 100 µM (inactive)	> 100 µM (inactive)	> 100 µM (inactive)	> 100 µM (inactive)
COc1cc2c(Cc3cc(OCc4ccccc4)ccc3N)nccc2c(OC)c1OC	–	> 10 µM (inactive)	> 10	> 10 µM (inactive)	> 10 µM (inactive)	> 10 µM (inactive)	> 10 µM (inactive)	> 10 µM (inactive)	> 10 µM (inactive)	> 10 µM (inactive)	> 10 µM (inactive)	> 10 µM (inactive)	> 10 µM (inactive)	> 10 µM (inactive)	> 10 µM (inactive)	> 10 µM (inactive)
COc1ccc(C(=O)O/N=C2/CCCCC2CN(C)C)cc1 (stereo not drawn)	> 100 µM (inactive)	> 100 µM (inactive)	> 100	> 100 µM (inactive)	> 100 µM (inactive)	> 100 µM (inactive)	> 100 µM (inactive)	> 100 µM (inactive)	> 100 µM (inactive)	–	> 100 µM (inactive)	> 100 µM (inactive)	> 100 µM (inactive)	> 100 µM (inactive)	> 100 µM (inactive)	> 100 µM (inactive)
COc1cc2c(cc1O)[C@H](C)C(c1ccccc1OC)O2 (stereo partly drawn)	4.49 µM (inactive)	12.1 µM (inactive)	3.34	3.45 µM (inactive)	4.65 µM (inactive)	2.08 µM (inactive)	3.01 µM (inactive)	6.41 µM (inactive)	3.01 µM (inactive)	3.98 µM (inactive)	2.49 µM (inactive)	8.2 µM (inactive)	4.67 µM (inactive)	22.4 µM (inactive)	2.6 µM (inactive)	–
CCCN(CCC)C(=O)Cc1c2n(c3ccccc13)CCCc1ccccc1-2	–	13.2 µM (inactive)	11.6	13.5 µM (inactive)	12.9 µM (inactive)	15.6 µM (inactive)	12.6 µM (inactive)	16.3 µM (inactive)	15.2 µM (inactive)	14.6 µM (inactive)	11.9 µM (inactive)	4.2 µM (inactive)	15.4 µM (inactive)	15.1 µM (inactive)	15.4 µM (inactive)	5.21 µM (inactive)
